ChEMBL document CHEMBL3853337, “Synthesis and P1' SAR exploration of potent macrocyclic tissue factor-factor VIIa inhibitors” (Bioorg Med Chem Lett, 2016)

Experiments:
[1] = target: Vitamin K-dependent protein C (Homo sapiens, UniProt P04070); assay: Inhibition of activated protein C (unknown origin) at 37 degC by chromogenic substrate assay
[2] = Permeability of the compound at pH 5.5 by PAMPA assay; assay type: ADME; settings: read-out: permeability
[3] = Permeability of the compound at pH 7.4 by PAMPA assay; assay type: ADME; settings: read-out: permeability
[4] = Anticlotting activity in human factor 7 immunodepleted plasma mixed with normal pooled plasma from different species assessed compound causing 2 times increase in prothrombin time after 3 mins relative to baseline control; assay type: functional
[5] = target: Coagulation factor X (Homo sapiens, UniProt P00742); assay: Inhibition of factor 10a (unknown origin) at 25 degC by chromogenic substrate assay
[6] = Fraction unbound in human plasma; assay type: ADME, cell-free
[7] = target: Prothrombin (Homo sapiens, UniProt P00734); assay: Inhibition of thrombin (unknown origin) at 25 degC by chromogenic substrate assay
[8] = Inhibition of trypsin (unknown origin) at 25 degC by chromogenic substrate assay; set-up: species or system Homo sapiens
[9] = Metabolic stability in human liver microsomes assessed as compound remaining after 10 mins; assay type: ADME; settings: read-out: Stability
[10] = Permeability from apical to basolateral side in human Caco2 cells; assay type: ADME, cell-based; settings: Caco-2, read-out: permeability
[11] = Permeability from basolateral to apical side in human Caco2 cells; assay type: ADME, cell-based; settings: Caco-2, read-out: permeability
[12] = Oral bioavailability in Beagle dog; assay type: ADME, organism-based, Canis lupus familiaris; settings: in vivo
[13] = target: T1, Coagulation factor VII/tissue factor (Homo sapiens, UniProt P08709); assay: Inhibition of human TF-factor 7a ([…] residues) using factor 10 as substrate after 60 mins; assay type: protein-complex assay
[14] = Half life in Beagle dog liver microsomes at 3 uM by LC-MS/MS analysis; assay type: ADME, Canis lupus familiaris
[15] = Clearance in po or iv dosed Beagle dog by LC-MS/MS analysis; assay type: ADME, organism-based, Canis lupus familiaris; settings: in vivo
[16] = target: Kallikrein-1 (Homo sapiens, UniProt P06870); assay: Inhibition of human kallikrein1 at 37 degC by chromogenic substrate assay
[17] = target: T1, Coagulation factor VII/tissue factor; assay: Inhibition of recombinant human TF-factor 7a using factor 10 as substrate at 37 degC; assay type: protein-complex assay
[18] = Half-life in human liver microsomes; assay type: ADME
[19] = species: Homo sapiens; assay: Selectivity ratio of Ki for thrombin (unknown origin) to Ki for human factor 7a ([…] residues)
[20] = species: Homo sapiens; assay: Selectivity ratio of Ki for trypsin (unknown origin) to Ki for human factor 7a ([…] residues)
[21] = species: Homo sapiens; assay: Selectivity ratio of Ki for factor 9a (unknown origin) to Ki for human factor 7a ([…] residues)
[22] = species: Homo sapiens; assay: Selectivity ratio of Ki for factor 10a (unknown origin) to Ki for human factor 7a ([…] residues)
[23] = species: Homo sapiens; assay: Selectivity ratio of Ki for human kallikrein1 to Ki for recombinant human TF-factor 7a
[24] = Clearance in iv dosed dog; assay type: ADME, organism-based, Canis lupus familiaris; settings: in vivo
[25] = Oral bioavailability in iv dosed dog; assay type: ADME, organism-based, Canis lupus familiaris; settings: in vivo

| SMILES | Ki [1] | Papp [2] | Papp [3] | Ki [5] | fraction unbound [6] | Ki [7] | Ki [8] | Ki [16] | Ki [17] | half-life [18] | clearance [24] | EC [4] | other results |
| --- | --- | --- | --- | --- | --- | --- | --- | --- | --- | --- | --- | --- | --- |
| Cc1cc2ccc1[C@@H](C)COC(=O)Nc1ccc(C3CC3)c(c1)CN(C)C(=O)[C@@H]2Nc1ccc2c(N)nccc2c1 | – | – | – | – | – | – | – | – | – | – | – | – | Papp A→B [10]: < 1.5 ×10⁻⁶ cm/s; Papp B→A [11]: 9.3 ×10⁻⁶ cm/s; bioavailability [12]: 12%; Ki [13]: 2 nM; half-life at 3 µM [14]: 3.33 h; clearance [15]: 2.2 mL/min/kg |
| Cc1cc2ccc1[C@@H](C)COC(=O)Nc1ccc(C3(C(=O)O)CCOCC3)c(c1)CN(C)C(=O)[C@@H]2Nc1ccc2c(N)ncc(F)c2c1 | 1600 nM | 2.6 ×10⁻⁶ cm/s | 2.1 ×10⁻⁶ cm/s | 1400 nM | 0.058 | > 13300 nM | > 6200 nM | 5300 nM | 4.4 nM | > 2 h | – | 11 µM | – |
| CCS(=O)(=O)c1ccc2cc1CNC(=O)[C@H](Nc1ccc3c(N)nccc3c1)c1ccc(c(C)c1)CCOC(=O)N2 | – | – | – | – | – | – | – | – | – | – | – | 1.2 µM | Ratio Ki [19]: > 500; Ratio Ki [20]: > 500; Ratio Ki [21]: > 500; Ratio Ki [22]: > 500 |
| Cc1cc2ccc1[C@@H](C)COC(=O)Nc1ccc(C3(C(=O)O)CCC3)c(c1)CN(C)C(=O)[C@@H]2Nc1ccc2c(N)ncc(F)c2c1 | 725 nM | 20.9 ×10⁻⁶ cm/s | 3.4 ×10⁻⁶ cm/s | 850 nM | 0.033 | > 13300 nM | 3400 nM | 1150 nM | 0.14 nM | > 2 h | 56 mL/min/kg | 7.9 µM | – |
| Cc1cc2ccc1[C@@H](C)COC(=O)Nc1ccc(C3(C(=O)O)CCCC3)c(c1)CN(C)C(=O)[C@@H]2Nc1ccc2c(N)ncc(F)c2c1 | 340 nM | 21.1 ×10⁻⁶ cm/s | 4 ×10⁻⁶ cm/s | 1800 nM | 0.028 | > 13300 nM | 2200 nM | 1600 nM | 0.22 nM | – | 54 mL/min/kg | 6.6 µM | – |
| Cc1cc2ccc1[C@@H](C)COC(=O)Nc1ccc(S(=O)(=O)C3CC3)c(c1)CN(C)C(=O)[C@@H]2Nc1ccc2c(N)nccc2c1 | – | – | – | – | – | – | – | – | – | – | – | 1.1 µM | bioavailability [12]: 1%; half-life at 3 µM [14]: 1.77 h; clearance [15]: 29 mL/min/kg |

Continued, in another order:

| Ki [1] | Papp [2] | Papp [3] | Ki [5] | fraction unbound [6] | Ki [7] | Ki [8] | Ki [16] | Ki [17] | half-life [18] | clearance [24] | SMILES | EC [4] | other results |
| --- | --- | --- | --- | --- | --- | --- | --- | --- | --- | --- | --- | --- | --- |
| 70 nM | 33.7 ×10⁻⁶ cm/s | 11.7 ×10⁻⁶ cm/s | 6650 nM | 0.044 | > 13300 nM | 2750 nM | – | – | – | – | Cc1cc2ccc1[C@@H](C)COC(=O)Nc1ccc(C3(C(=O)O)CC3)c(c1)CN(C)C(=O)[C@@H]2Nc1ccc2c(N)ncc(F)c2c1 | 4.7 µM | remaining at 10 min [9]: 100% |
| 220 nM | – | – | 3000 nM | – | 18000 nM | > 6200 nM | 15 nM | 18 nM | 0.383 h | – | Cc1cc2ccc1[C@@H](C)COC(=O)Nc1ccc(C3CC3)c(c1)CN(C)C(=O)[C@@H]2Nc1ccc2c(N)ncc(F)c2c1 | 32 µM | Ratio Ki [23]: 0.8 |
| 175 nM | 11.9 ×10⁻⁶ cm/s | 4.8 ×10⁻⁶ cm/s | 1050 nM | 0.018 | > 13300 nM | 4900 nM | 960 nM | 0.72 nM | 1.9 h | 7 mL/min/kg | Cc1cc2ccc1[C@@H](C)COC(=O)Nc1ccc(C3(c4nnn[nH]4)CC3)c(c1)CN(C)C(=O)[C@@H]2Nc1ccc2c(N)ncc(F)c2c1 | 10 µM | bioavailability [25]: 2% |
| 155 nM | 80.5 ×10⁻⁶ cm/s | 8 ×10⁻⁶ cm/s | 900 nM | 0.017 | > 13300 nM | 505 nM | 1200 nM | 0.06 nM | 1.57 h | – | Cc1cc2ccc1[C@@H](C)COC(=O)Nc1ccc(C3(C(=O)O)CCCCC3)c(c1)CN(C)C(=O)[C@@H]2Nc1ccc2c(N)ncc(F)c2c1 | 18 µM | – |
